# Assay results published in paper PMC11587510, “Aromatic Amino Acid Hydroxylases as Off-Targets of Histone Deacetylase Inhibitors” (ACS Chemical Neuroscience, 2024).
# Where “and” joins values, the source holds several entries; their conditions need not be identical. Equal values may be shown once. Read-outs that look alike come from different tables or passages of the source.
# Assays:
# [1] = Solubility observed in DSF dose-response; assay type: physicochemical; conditions: highest concentrations removed before curve fitting
# TPH1 = biological target: T1, TPH1 (Homo sapiens, UniProt P17752); experiment: Differential scanning fluorimetry (DSF) thermal stability assay; assay type: binding; conditions: for Tm (°C) ± SD (°C), primary screen: 0.075 mg/mL TPH1, 0.5% DMSO, three independent measurements (a: duplicates); for Kd: read-out: apparent KD (μM), dose-response
# T1 construct: doubly truncated human TPH1 (ΔNH102-ΔCOOH402); made in house; host or cells: E. coli BL21(DE3)
# T1 sequence (P17752 102-402): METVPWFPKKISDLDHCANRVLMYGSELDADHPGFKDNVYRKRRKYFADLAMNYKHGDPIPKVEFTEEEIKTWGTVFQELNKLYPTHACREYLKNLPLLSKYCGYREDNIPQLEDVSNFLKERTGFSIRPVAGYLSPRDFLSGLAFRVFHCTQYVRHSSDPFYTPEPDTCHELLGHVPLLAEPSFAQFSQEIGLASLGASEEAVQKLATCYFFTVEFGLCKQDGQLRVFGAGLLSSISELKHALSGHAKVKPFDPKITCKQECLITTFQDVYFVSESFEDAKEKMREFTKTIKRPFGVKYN
# Experimental: A fluorescence-based thermal stability assay (differential scanning fluorimetry, DSF) was used for testing the effects of HDIs on the thermal stability of TPH1.
# For initial high throughput screening (HTS), compounds were prepared at a concentration of 10 mM (in some cases, 5 mM) in 100% DMSO. Initial HTS screening was performed on TPH1 with and without compounds using a LightCycler 480 Real-Time PCR System (Roche Applied Science). TPH1 was diluted to 0.075 mg/mL in 50 mM Tris pH 8.0, 200 mM NaCl, 0.5 mM TCEP, and 5% glycerol with 5x SYPRO Orange. Compounds were added to a final concentration of 50 μM. Controls with 0.5% DMSO were performed on each 384-well microplate. Unfolding curves were recorded from 20 to 95 °C at a scan rate of 2 °C/min and monitored at excitation = 465 nm and emission = 610 nm. Selected hits were validated further by serial dilution from 250 μM to 122 nM, keeping the DMSO concentration constant at 2%.
# DSF data were analyzed using HTSDSF Explorer.[55] Melting temperature (Tm) was calculated from the maximum value of the first derivative of the unfolding curve. ΔTm (Tm with compound–averaged Tm in DMSO controls) was plotted for all validated curves and a threshold of 2 °C was set (typically, cutoff at ΔTm = 3-fold the SD of the Tm of the DMSO control).
# Preliminary binding constants (KD) were calculated by fitting data to the equation [drawing 1] where ΔH0 is the enthalpy of the unfolding of the protein in the presence of ligand ([L]), and R is the gas constant.
# [2] = biological target: T2, doubly truncated human TPH1 (ΔNH102-ΔCOOH402) (Homo sapiens, UniProt P17752); experiment: TPH1 enzyme activity assay (HPLC, 5-OH-Trp); assay type: biochemical; conditions: for IC50: best-fit IC50 (± SE), nonlinear regression, N.A. = no activity
# T2 construct: doubly truncated human TPH1 (ΔNH102-ΔCOOH402); made in house; host or cells: E. coli BL21(DE3)
# T2 sequence (P17752 102-402, stated change not applied): as the sequence (P17752 102-402) above
# Experimental: (§1) TPH1 enzymatic activity assays were performed with the selected hits from the DSF screening in the presence and absence of 50 μM of each compound. The final concentration of DMSO was 0.5% (v/v), and control experiments used 0.5% DMSO in the absence of ligand. Assays were performed in a standard reaction mixture containing 40 mM Hepes pH 7.0, 200 mM NaCl, 0.1 mg/mL catalase, 0.5 mg/mL BSA, 10 μM ferrous ammonium sulfate, and 30 μM L-tryptophan (L-Trp). Compounds were incubated with TPH1 (0.02 mg/mL) in the reaction mixture for 10 min on ice.
# human TH isoform 1 (TH1) = biological target: T3, human TH isoform 1 (TH1) (Homo sapiens, UniProt P07101); experiment: TH enzyme activity assay (HPLC, L-DOPA); assay type: biochemical; conditions: best-fit IC50 (± SE), nonlinear regression; N.A. = no activity
# T3 construct: Full-length human TH isoform 1 (TH1); His6-ZZ fusion partner (one of the two preparations only) (cleaved yes); made in house; host or cells: E. coli BL21(DE3) pLysS (pET3a) or BL21 CodonPlus (pET-ZZ-1a)
# T3 sequence (P07101 1-497 isoform P07101-3): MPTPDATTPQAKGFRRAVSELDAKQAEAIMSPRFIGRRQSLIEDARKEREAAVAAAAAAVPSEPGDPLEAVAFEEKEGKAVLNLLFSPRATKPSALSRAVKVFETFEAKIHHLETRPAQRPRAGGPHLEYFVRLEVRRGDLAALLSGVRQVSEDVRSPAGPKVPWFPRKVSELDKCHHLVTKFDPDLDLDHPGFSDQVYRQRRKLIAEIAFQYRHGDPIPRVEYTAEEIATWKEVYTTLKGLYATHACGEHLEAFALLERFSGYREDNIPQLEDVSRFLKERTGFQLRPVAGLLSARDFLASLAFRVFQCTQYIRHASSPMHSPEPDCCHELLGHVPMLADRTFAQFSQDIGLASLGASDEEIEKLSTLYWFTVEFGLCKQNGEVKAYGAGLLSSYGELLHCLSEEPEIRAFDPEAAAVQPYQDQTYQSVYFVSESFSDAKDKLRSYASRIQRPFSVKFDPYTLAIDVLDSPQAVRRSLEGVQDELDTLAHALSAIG
# Experimental: The activity of purified PAH, TH, TPH1, and TPH2 was measured using high-performance liquid chromatography (HPLC) as previously described.[50],[56],[57]
# TH activities were performed in a standard reaction mixture containing 40 mM Hepes (pH 7.0), 0.1 mg/mL catalase, 10 μM ferrous ammonium sulfate, and 50 μM L-Tyr. Compounds were incubated with TH (0.01 mg/mL) in the reaction mixture for 10 min on ice. The enzymatic reaction was initiated by adding 200 μM BH4 and 2 mM DTT (final concentrations) and stopped by precipitation with 2% (v/v) acetic acid in ethanol after 5 min at 37 °C. The product, L-DOPA, was quantified by HPLC utilizing a fluorescence monitor set at 281 and 314 nm for excitation and emission, respectively.
# GraphPad Prism (version 10; La Jolla, CA) was used for analyzing the enzyme inhibition data.
# HDAC 6 = conditions: human recombinant HDAC, cited from earlier work
# human TPH2 = biological target: T4, human TPH2 (Homo sapiens, UniProt Q8IWU9); experiment: TPH2 enzyme activity assay (HPLC); assay type: biochemical; conditions: best-fit IC50 (± SE), nonlinear regression; N.A. = no activity
# T4 construct: Full-length human TH isoform 1 (TH1), human PAH, human TPH2, and doubly truncated human TPH1; MBP (cleaved yes); made in house; host or cells: E. coli BL21(DE3)
# T4 sequence (Q8IWU9 1-490): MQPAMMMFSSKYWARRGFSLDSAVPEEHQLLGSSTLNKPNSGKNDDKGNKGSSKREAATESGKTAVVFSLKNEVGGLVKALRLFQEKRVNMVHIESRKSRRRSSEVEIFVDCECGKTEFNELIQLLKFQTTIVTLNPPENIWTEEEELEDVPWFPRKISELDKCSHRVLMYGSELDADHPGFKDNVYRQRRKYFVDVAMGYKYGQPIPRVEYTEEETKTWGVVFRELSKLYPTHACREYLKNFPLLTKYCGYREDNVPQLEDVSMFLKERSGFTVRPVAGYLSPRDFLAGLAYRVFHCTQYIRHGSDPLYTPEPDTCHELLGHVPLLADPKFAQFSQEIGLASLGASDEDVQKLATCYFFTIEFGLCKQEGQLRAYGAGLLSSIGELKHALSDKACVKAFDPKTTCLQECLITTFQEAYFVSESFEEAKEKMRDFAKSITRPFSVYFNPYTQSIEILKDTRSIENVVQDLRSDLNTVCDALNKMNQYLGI
# Experimental: as §1
# HDAC 1 = conditions: human recombinant HDAC, cited from earlier work
# human PAH = biological target: T5, human PAH (Homo sapiens, UniProt P00439); experiment: PAH enzyme activity assay (HPLC, L-Tyr); assay type: biochemical; conditions: for IC50: best-fit IC50 (± SE), nonlinear regression, N.A. = no activity, read-out: IC50 (μM) PAH
# T5 construct: Full-length human TH isoform 1 (TH1), human PAH, human TPH2, and doubly truncated human TPH1; made in house; host or cells: E. coli TB1
# T5 sequence (P00439 1-452): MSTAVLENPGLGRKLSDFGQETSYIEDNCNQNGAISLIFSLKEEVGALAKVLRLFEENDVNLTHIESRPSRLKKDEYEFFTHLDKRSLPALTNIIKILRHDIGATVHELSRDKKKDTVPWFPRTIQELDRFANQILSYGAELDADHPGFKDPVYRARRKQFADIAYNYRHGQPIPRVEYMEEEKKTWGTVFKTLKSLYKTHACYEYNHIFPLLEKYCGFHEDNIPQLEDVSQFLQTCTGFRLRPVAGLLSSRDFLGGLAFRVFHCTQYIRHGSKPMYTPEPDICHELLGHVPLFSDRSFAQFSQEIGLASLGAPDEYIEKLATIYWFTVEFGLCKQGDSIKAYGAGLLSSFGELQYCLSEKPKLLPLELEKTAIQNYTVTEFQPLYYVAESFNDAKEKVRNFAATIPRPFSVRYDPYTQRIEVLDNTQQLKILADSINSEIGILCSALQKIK
# human recombinant HDAC1 = biological target: T6, human recombinant HDAC1 (Homo sapiens, UniProt Q13547); experiment: HDAC1 activity assay (homogeneous fluorescence, ZMAL); assay type: biochemical; conditions: 1.11–30 μM compound, DMSO (5%) control
# T6 construct: purchased BPS Bioscience 50051
# T6 sequence (Q13547 whole entry): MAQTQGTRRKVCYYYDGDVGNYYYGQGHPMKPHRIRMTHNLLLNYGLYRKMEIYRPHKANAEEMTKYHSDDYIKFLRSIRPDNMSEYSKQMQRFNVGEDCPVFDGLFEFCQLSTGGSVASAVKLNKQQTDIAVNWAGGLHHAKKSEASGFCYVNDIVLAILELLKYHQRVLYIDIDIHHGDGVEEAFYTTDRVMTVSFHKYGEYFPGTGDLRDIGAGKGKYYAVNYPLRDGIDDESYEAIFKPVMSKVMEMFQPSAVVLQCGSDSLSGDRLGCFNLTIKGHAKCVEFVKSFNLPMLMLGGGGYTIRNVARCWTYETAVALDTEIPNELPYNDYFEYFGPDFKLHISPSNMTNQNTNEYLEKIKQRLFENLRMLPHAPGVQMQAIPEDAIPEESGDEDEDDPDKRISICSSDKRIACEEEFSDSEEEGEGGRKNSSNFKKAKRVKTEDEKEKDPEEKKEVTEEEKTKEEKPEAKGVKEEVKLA
# Experimental: HDAC1 inhibition was determined by using a homogeneous fluorescence assay as previously described.[58] For HDAC1 activity assay, OptiPlate-96 black microplates (PerkinElmer) were used.
# endogenous PAH = biological target: T7, endogenous PAH (Homo sapiens, UniProt P00439); experiment: Cellular thermal shift assay (CETSA) in HepG2 cells; assay type: cell-based; conditions: 50 μM compound, 1 h, vs DMSO
# T7 construct: increased melting temperatures (ΔTm) of endogenous PAH; endogenous in cells; host or cells: HepG2
# T7 sequence (P00439 1-452): T5 sequence (P00439 1-452)
# Experimental: Then, cells were washed, harvested using trypsin, and pelleted by centrifugation. The pellet was washed twice with PBS supplemented with complete EDTA-free protease inhibitor cocktail (Roche) and divided into 14 aliquots of 35 μL containing 800,000 cells. Cells were then frozen in liquid nitrogen and thawed at 25 °C three times, and each aliquot was heated to a defined temperature by applying a gradient between 39 °C and 69 °C in a thermocycler (peQSTAR, PeQlab; 16-well gradient, 54 °C ± 15 °C). After 3 min incubation, aliquots were snap frozen in liquid nitrogen and thawed at 25 °C. Cell lysates were centrifuged at 20,000 g (4 °C) for 20 min. Supernatants were mixed with 5x loading buffer, heated to 70 °C for 5 min and analyzed by Western blotting. Chemoluminescence signals were recorded with a FusionSL, Vilber Lourmat (peQlab) and quantified using FusionCapt Advance FX7 16.01c software. Calculation of ΔTm was conducted using the Boltzmann sigmoidal model in GraphPad prism 7.01.
# Cell lysates used for Western blot analysis were prepared as described in the Methods section (Cellular Thermal Shift Assay). […] Chemoluminescence signals were recorded with an FusionSL, Vilber Lourmat (peQlab) and quantified using FusionCapt Advance FX7 16.01c software.
# HDAC 8 = conditions: human recombinant HDAC; ref 6 (10.1002/cmdc.201800238); cited from earlier work
# [3] = DSF, 50 μM compound, vs averaged Tm of 0.5% DMSO controls
# [4] = estimated from DSF dose-response, 2% DMSO
# [5] = ref 5 (10.1021/acs.jmedchem.8b01090)
Structure (SMILES),solubility at the highest concentrations [1],"Tm (°C) ± SD (°C), primary screen (TPH1; DSF, 50 μM compound)","ΔTm (°C) ± SD (°C), primary screen (TPH1; [3]) [°C]",Kd (TPH1; [4]),IC50 [2] [µM],IC50 (human TH isoform 1 (TH1)),IC50 (human TPH2) [µM],IC50 (human PAH),other results
"O=C(NO)c1coc(C(c2ccccc2)c2ccccc2)n1 [JS32, 2-(diphenylmethyl)-1,3-oxazole-4-carbohydroxamic acid]",solubility issues,58.5 ± 0.2 ^a °C,3.1 ± 0.0,30.9 µM,–,–,–,–,–
"O=C(NO)c1ccc(CN2c3ccccc3Sc3ccccc32)cc1 [KV46, 4-[(10H-phenothiazin-10-yl)methyl]-N-hydroxybenzamide]",solubility issues,59.1 ± 0.5 ^a °C,3.6 ± 0.3,> 100 µM,–,–,–,–,–
"COc1ccc2c(c1)N(Cc1ccc(C(=O)NO)cc1)c1ccccc1S2 [KV103, N-Hydroxy-4-[(2-methoxy-10H-Phenothiazin-10-yl)methyl]benzamide]",–,59.6 ± 0.7 °C,4.3 ± 0.5,49.4 µM,106 ± 177,100 ± 128 µM,9.78 ± 17.2,8.12 ± 1.67 µM,"inhibition of TPH1 activity at 50 μM ([2]; compound 50 μM, 0.5% DMSO): more than 50%; IC50 (HDAC 6; [5]): 0.01 ± 0.001 µM; IC50 (HDAC 1; [5]): 2.07 ± 0.19 µM"
"N[C@@H](Cc1ccc(Cl)cc1)C(=O)O [L-PCPA, 4-chloro-L-phenylalanine]",–,–,–,–,–,–,–,–,effect on HDAC1 activity (human recombinant HDAC1): do not inhibit
Cc1ccn(-c2cc(Cl)ccc2[C@@H](Oc2cc(-c3ccc(C[C@H](N)C(=O)O)cc3)nc(N)n2)C(F)(F)F)n1 [telotristat],–,–,–,–,–,4.2 µM,–,4.9 µM,effect on HDAC1 activity (human recombinant HDAC1): do not inhibit
"CC(C)c1cccc(=O)c(O)c1 [β-thujaplicin, reference compound]",–,–,–,–,12.6,1.37 µM and 1.4 µM,12.9,0.46 µM and 0.5 µM,"inhibition at 50 µM ([2]; compound 50 μM, 0.5% DMSO): > 50%; effect of increasing compound concentration on the Tm of TPH1 (TPH1; DSF dose-response): concentration-dependent shift by decreasing the Tm; ΔTm at 50 µM (TPH1; DSF, 50 μM compound, vs averaged Tm of 0.5% DMSO controls, read-out: ΔTm (°C) ± SD (°C), primary screen): -1.7 ± 0.1 °C; apparent KD (μM), dose-response (TPH1; [4]): very low affinity"

# The next lines start with results.
solubility at the highest concentrations [1],"Tm (°C) ± SD (°C), primary screen (TPH1; DSF, 50 μM compound)","ΔTm (°C) ± SD (°C), primary screen (TPH1; [3]) [°C]",Kd (TPH1; [4]),IC50 [2] [µM],IC50 (human TH isoform 1 (TH1)),IC50 (human TPH2) [µM],IC50 (human PAH),Structure (SMILES),other results
–,–,-3.4 ± 0.1,–,49.6,–,195,1.55 µM and 1.6 µM,"O=C(/C=C/c1ccccc1Oc1ccc(Cl)cc1)NO [TB57, (2E)-3-[2-(4-Chlorophenoxy)phenyl]-N-hydroxy-2-propenamide]",ΔTm of endogenous PAH (CETSA) (endogenous PAH): 4.8 °C; IC50 (HDAC 8): 150 ± 30 nM; IC50 (μM) TH (human TH isoform 1 (TH1)): no inhibition; IC50 (HDAC 6; ref 6 (10.1002/cmdc.201800238)): 11.4 ± 2.5 µM; IC50 (HDAC 1; ref 6 (10.1002/cmdc.201800238)): 13.4 ± 2.4 µM; selectivity toward PAH in comparison to TPH1 (human PAH; from IC50 values of Table 2): 30 fold; selectivity toward PAH in comparison to TPH2 (human PAH; from IC50 values of Table 2): 125 fold
solubility issues,59.7 ± 0.4 °C,4.4 ± 0.4,0.7 µM and 1.4 µM,–,–,–,–,"O=C(NO)c1cc2ccccc2[nH]1 [TB74, 1H-Indole-2-hydroxamic acid]","inhibition of TPH1 activity at 50 μM ([2]; compound 50 μM, 0.5% DMSO): no significant inhibition"
